Source: US6291488A, “Preventing protozoal infections” (Glaxo Wellcome Inc., priority 1992, dated 2001)
Several values for one entry are separate records, joined by “and”; a condition that tells them apart may be missing. Identical values can stand only once.

Key:
[1] = tested on: P. falciparum W-2 (multi-drug resistant W-2 clone); assay: In vitro drug combination sensitivity (Desjardins hypoxanthine incorporation), W-2 clone; assay type: cell-based; conditions: drug combined with compound of Example 1, positive = synergistic, negative = antagonism, 0 = additive
Experimental: (§1) Antimalarial activity in this system is assessed by inhibition of radiolabelled hypoxanthine incorporation into parasites by graded concentrations of drugs.
(§2) The drugs tested and their solvents are listed below:
(§3) In order to study drug combinations, drug solutions at starting concentrations were combined in various ratios and 1:5,1:2,2:1 and 5:1). […] Serial 1:3 dilutions of the drugs with media were made to fill the 96-well microtitre plate using a 12-channel pipetter. To evaluate drugs classified as dihydrofolic acid reductase (DHFR) inhibitors, modified culture medium was used which contained only physiologic concentrations of folic acid and PABA.
(§4) Individual IC50 s were calculated using the "MINSQ" program from Micromath Scientific Software. Each set of paired data was fitted to the hyperbolic tangent function used by Desjardins.
(§5) An isobologram was constructed by fitting the data to the equation:
(§6) Y1-[Xi /(Xi +e^I *(1-Xi))]
(§7) I=interaction parameter indicating degree of reversal
Positive values of I indicated a synergistic combination, negative values indicated antagonism and I=O indicated additive interaction. […]

[2] = tested on: P. falciparum C2B (isolate resistant to the compound of example 1); assay type: cell-based; conditions: drug combined with compound of Example 1, positive = synergistic, negative = antagonism, 0 = additive
Experimental: as §1, §2, §3, §4, §5, §6, §7
(§8) Positive values of I indicated a synergistic combination, negative values indicated antagonism and I=O indicated additive interaction.
(§9) The optimum ratio of the combination with proguanil was estimated for each of the three strains of malaria parasite by determining the ratio of the IC50 of proguanil to the IC50 of the compound of Formula (II).

[3] = tested on: P. falciparum D-6 (drug-sensitive but melfloquine resistant D-6 clone); assay: In vitro drug combination sensitivity (Desjardins hypoxanthine incorporation), D-6 clone; assay type: cell-based; conditions: drug combined with compound of Example 1, positive = synergistic, negative = antagonism, 0 = additive
Experimental: as §1, §2, §3, §4, §5, §6, §7, §8, §9

T. gondii C56 strain = assay: Anti-Toxoplasma activity in vivo, mouse model of T. gondii; parameters: species or system T. gondii; CBA/CA mice; conditions: oral gavage; for Mean Time to Death: 10 days
Text: Comparison of anti-Toxoplasma activities in vivo of compound of Example 1, proguanil and combinations thereof
Activities of the compounds and combinations were examined in a mouse model of T. gondii, using the increase in time to death and percent survival of the mice as measures of drug activity.
Groups of 10, 20 gm CBA/CA mice were infected orally by gavage with 6 cysts of the C56 strain of T. gondii and drug treatment was started 3 days later and continued for 10 day. All drugs were administered orally by gavage. The following groups were examined:
All animals were examined twice daily for 30 days and all deaths recorded.

Pneumocystis = assay: Anti-Pneumocystis activity in vivo, scid mouse model of Pneumocystis pneumonia; parameters: species or system P. carinii; scid mice; key to Mean Score ±SE: score 0 = no infection, +4 = very heavy infection; conditions: for number of mice with SCORE 0: 0 = no infection; for % of Control: mean score
Experimental: Comparison of anti-Pneumocystis activities in vivo of compound of Example 1 proguanil and combinations thereof
Activities of the compounds and combinations were examined in a scid mouse model of Pneumocystis pneumonia.
The level of infection of mice in each group was measured using standard lung impression smears and immunofluorescence tests. A score was assigned to each mouse where 0=no infection and +4=very heavy infection.

[4] = 25 mg/kg p.o. daily, +4 = very heavy infection

## COc1cc(NC(C)CCCN)c2ncccc2c1 (centres unmarked) [Primaquine]
[1]
  I (interaction parameter): -0.79

## COc1cc(Cc2cnc(N)nc2N)cc(OC)c1OC [Trimethoprim]
[1]
  I (interaction parameter): 1.27
[2]
  I (interaction parameter): 0.58

## OC(c1cc(C(F)(F)F)nc2c(C(F)(F)F)cccc12)C1CCCCN1 (centres unmarked) [Mefloquine]
[1]
  I (interaction parameter): -1.19

## CCc1nc(N)nc(N)c1-c1ccc(Cl)cc1 [Pyrimethamine]
[1]
  I (interaction parameter): 0.36
[2]
  I (interaction parameter): -0.48

## CCn1cc(C(=O)O)c(=O)c2cc(F)c(N3CCNCC3)cc21 [Norfloxacin]
[1]
  I (interaction parameter): 1.02

## C[C@H]1[C@H](OC(=O)CCC(=O)O)O[C@@H]2O[C@@]3(C)CC[C@H]4[C@H](C)CC[C@@H]1[C@@]24OO3 [Artesunic acid]
[3]
  I (interaction parameter): -0.18

## CCN(CC)CCCC(C)Nc1ccnc2cc(Cl)ccc12 (centres unmarked) [Chloroquine]
[1]
  I (interaction parameter): -1.84
[3]
  I (interaction parameter): -1.40

## CC1(C)N=C(N)N=C(N)N1c1ccc(Cl)cc1 [Cycloguanil]
[1]
  I (interaction parameter): 2.21
[3]
  I (interaction parameter): 1.66

## Cc1nc(C)c(Cl)c(O)c1Cl [Clopidol]
[3]
  I (interaction parameter): 0.73

## CC(C)NC(=N)NC(=N)NOCCCOc1cc(Cl)c(Cl)cc1Cl [PS-15]
[3]
  I (interaction parameter): -0.74

## [H]/N=C(\N/C(=N/[H])Nc1ccc(Cl)cc1)NC(C)C [Proguanil]
[3]
  I (interaction parameter): 2.56
[2]
  I (interaction parameter): 2.56
T. gondii C56 strain; 25 mg/kg
  survivors: no survivors
  toxicity to mice: exhibits signs of toxicity
  Mean Time to Death: 9.0 days and 9 days
Pneumocystis; 25 mg/kg p.o. daily
  Mean Score ±SE: 3.80 ± 0.13
  No. Infected/No. Examined: 10/10
  number of mice with SCORE +1: 0
  number of mice with SCORE +3: 0
  number of mice with SCORE +4: 2
  number of mice with SCORE 0: 0
  % of Control: 85%
Pneumocystis; [4]
  number of mice with SCORE +4: 8
Pneumocystis; alone at 25 mg/kg/day
  prophylaxis of PCP in the scid mouse: ineffective

## Cc1cc(NS(=O)(=O)c2ccc(N)cc2)no1 [Sulfamethoxazole]
[1]
  I (interaction parameter): 2.75

## Nc1ccc(S(=O)(=O)c2ccc(N)cc2)cc1 [Dapsone]
[1]
  I (interaction parameter): -0.39

## Oc1ncnc2[nH]ncc12 [Allopurinol]
[1]
  I (interaction parameter): 1.14
[3]
  I (interaction parameter): 0.43

## CC1(C)N=C(N)N=C(N)N1OCCCOc1cc(Cl)c(Cl)cc1Cl [WR99210]
[1]
  I (interaction parameter): 0.02

## O=C1C(O)=C([C@H]2CC[C@H](c3ccc(Cl)cc3)CC2)C(=O)c2ccccc21 [Atovaquone, 2-[4-(4-chlorophenyl)cyclohexyl]-3-hydroxy-1,4-naphthoquinone]
T. gondii C56 strain; 10 mg/kg
  percent survival: 10%
  Mean Time to Death: 20.1 days
T. gondii C56 strain; 25 mg/kg
  percent survival: 10%
  Mean Time to Death: 24.1 days
Pneumocystis; 25 mg/kg p.o. daily
  Mean Score ±SE: 3.10 ± 0.17
  No. Infected/No. Examined: 10/10
  number of mice with SCORE +1: 0
  number of mice with SCORE +3: 1
  number of mice with SCORE +4: 7
  number of mice with SCORE 0: 0
  % of Control: 84%
Pneumocystis; [4]
  number of mice with SCORE +4: 2
Pneumocystis; 50 mg/kg p.o. daily
  Mean Score ±SE: 2.50 ± 0.16
  No. Infected/No. Examined: 10/10
  number of mice with SCORE +1: 0
  number of mice with SCORE +3: 5
  number of mice with SCORE +4: 5
  number of mice with SCORE 0: 0
  % of Control: 68%
Pneumocystis; 50 mg/kg p.o. daily, +4 = very heavy infection
  number of mice with SCORE +4: 0
Pneumocystis; dosed alone
  infection score (in words): reductions in the infection score

## CN(C)C1C(=O)C(C(N)=O)=C(O)C2(O)C(=O)C3=C(O)c4c(O)cccc4C(C)(O)C3CC12 (centres unmarked) [Tetracycline]
[1]
  I (interaction parameter): 1.27
[3]
  I (interaction parameter): 1.11
